These results are taken from US20130225839A1, “PREPARATION METHOD OF FOSAMPRENAVIR DERIVATIVES AND RELEVANT INTERMEDIATE THEREOF” (ZHEJIANG JIUHOU PHARMA SCIENCE & TECHNOLOGY CO., LTD., priority 2010, published 2013).

Values after ≈ are worked out from the molar mass of the structure shown.

Data set [1] in a line: solubility in water or ethanol. It counts as physicochemical.
The conditions of data set [2]: cited from earlier work.

Take `CC(C)CN(C[C@@H](OP(=O)([O-])[O-])[C@H](Cc1ccccc1)NC(=O)O[C@H]1CCOC1)S(=O)(=O)c1ccc([N+](=O)[O-])cc1.[Na+].[Na+]` [sodium (3S)4etrahydrofuran-3-yl(1S,2R)-3-[(4-nitrophenyl)sulfonyl](isobutyl)amino-1-benzyl-2-(phosphonooxy)propyl-carbamate]: in data set [1] (ethanol), the solubility in ethanol entry is recorded as “soluble”. In addition, the solubility in water result in data set [1] (water) is reported as “soluble”.

Regarding `CC(C)CN(C[C@@H](O)[C@H](Cc1ccccc1)NC(=O)O[C@H]1CCOC1)S(=O)(=O)c1ccc(N)cc1` [APV, amprenavir], in data set [2], the “solubility in water at 25° C.” value was 40 µg/mL (≈ 79.1 µM).
